Assay: Study HDP-CDV-201: safety and tolerability (adverse events, laboratory abnormalities, discontinuations)
Format: in vivo, human (adult allogeneic HSCT recipients)
Details: for ALT, subject 4090 / AST, subject 4090 / Alk Phos, subject 4090 / Bilirubin, subject 4090: 100 BIW
Protocol: Clinical Studies of HDP-CDV were performed and described in detail in the following Examples. For example, HDP-CDV-201 is a placebo-controlled, dose-escalating trial in HSCT CMV (R+) recipients, evaluating the ability of HDP-CDV to prevent or control CMV infection was carried out. Five cohorts were established in which participants or subjects received either placebo or the HDP-CDV orally, in doses ranging from 40 mg weekly (QW) to 200 mg twice weekly (BIW). Subjects who were post-HSCT were enrolled at the time of engraftment and randomized to HDP-CDV or placebo (3 to 1 ratio) and received blinded therapy until approximately 100 day post-transplantation. HDP-CDV doses were 40 mg QW, 100 mg QW, 200 mg QW, 200 mg BIW and 100 mg BIW. Escalation to the next dose was decided by the data monitoring committee after review of the safety data from the previous Cohort. Subjects who developed CMV disease or CMV infection requiring pre-emptive therapy with local standard of care were discontinued from blinded therapy and followed for 4 weeks. Subjects who completed treatment with blinded therapy were followed for 8 weeks post-therapy.
Data from Study HDP-CDV-201 also provided characterization of the safety and tolerability profile of HDP-CDV when administered for the prevention or control of CMV infection in high risk (R^+) post-HSCT adult subjects.
The Safety population (SAFETY) included all randomized subjects who took at least one dose of study treatment. This population was used to summarize safety outcomes based on the treatment actually received, in cases where a subject was treated contrary to the randomization schedule.
The safety and tolerability profile of HDP-CDV, including subject demographics and Baseline characteristics; the AE profile; and laboratory abnormalities of interest were analyzed in the cohorts followed in this investigation.
Subjects completing the treatment period received a full course of study medication; those completing the entire study attended visits through 8 weeks of follow up. Subjects who discontinued treatment may have done so for protocol specified reasons (e.g. development of clinically significant CMV infection requiring preemptive treatment with excluded anti-CMV medications) or for other reasons (e.g., withdrawal, adverse events, loss to follow-up). The disposition of subjects in Study HDP-CDV-201 during the double-blind, placebo-controlled treatment period (through Week 11) is listed by dosing Cohort in TABLE 23.
Adverse events were examined by severity to ensure that all safety signals were identified in this study population. Because of the frequency of events in HSCT recipients, particular attention was given to evaluation of Grade 3 […], 4 (severe), and 5 (fatal) adverse events.
Only those preferred terms for which at least one Grade 3 or higher event was experienced in any treatment group are listed. Cytomegalovirus-related AEs are excluded from this analysis.
HDP-CDV is a lipid conjugate of CDV. Because CDV is known to have adverse effects on renal function and bone marrow, decreased GFR and persistent neutropenia were identified as AEs of special interest. Key renal and hematological (TABLE 30) laboratory parameters were measured and listed below by Study HDP-CDV-201 treatment groups. TABLE 30 includes abnormal levels of serum creatinine, neutrophils, platelets, WBCs, and hemoglobin and includes data at Screening and during the treatment period.
A common metric for unit based dosing of medications is by weight (mg/kg). When the distribution of weights was examined for all subjects participating in the study, the median was 78 kg and the lower 25th percentile weight was approximately 65 kg, which translates to a cut-off of ˜3 mg/kg for a 200 mg total weekly dose. Based upon this approach, a cut-off of 3 mg/kg was used to assess the frequency of diarrhea and associated GI AEs reported for the subjects in Cohorts 3 or 4a (TABLE 40).

## CCCCCCCCCCCCCCCCOCCCOP(=O)(O)COC(CO)Cn1ccc(N)nc1=O (stereo not drawn) [HDP-CDV]
200 mg QW
  TEAE LFT Abnormal, Grade 4: 0
  TEAE LFT Abnormal, Grade 5: 0
  TEAE Leukocytosis, Frequency: 2 (5.1%)
  TEAE Leukocytosis, Grade 2: 0
  TEAE Leukocytosis, Grade 3: 0
  TEAE Leukocytosis, Grade 4: 0
  TEAE Leukocytosis, Grade 5: 0
  TEAE Nausea, Frequency: 11 (28.2%)
  TEAE Nausea, Grade 2: 4 (10.3%)
  TEAE Nausea, Grade 3: 1 (2.6%)
  TEAE Nausea, Grade 4: 0
  TEAE Nausea, Grade 5: 0
  TEAE Neutropenia, Frequency: 4 (10.3%)
  TEAE Neutropenia, Grade 2: 1 (2.6%)
  TEAE Neutropenia, Grade 3: 3 (7.7%)
  TEAE Neutropenia, Grade 4: 0
  TEAE Neutropenia, Grade 5: 0
  TEAE Pneumonia, Frequency: 0
  TEAE Pneumonia, Grade 2: 0
  TEAE Pneumonia, Grade 3: 0
  TEAE Pneumonia, Grade 4: 0
  TEAE Pneumonia, Grade 5: 0
  TEAE Pyrexia, Frequency: 7 (17.9%)
  TEAE Pyrexia, Grade 2: 2 (5.1%)
  TEAE Pyrexia, Grade 3: 2 (5.1%)
  TEAE Pyrexia, Grade 4: 0
  TEAE Pyrexia, Grade 5: 0
  TEAE Renal Failure, Frequency: 0
  TEAE Renal Failure, Grade 2: 0
  TEAE Renal Failure, Grade 3: 0
  TEAE Renal Failure, Grade 4: 0
  TEAE Renal Failure, Grade 5: 0
  TEAE Staphylococcal Bacteremia, Frequency: 1 (2.6%)
  TEAE Staphylococcal Bacteremia, Grade 2: 0
  TEAE Staphylococcal Bacteremia, Grade 3: 1 (2.6%)
  TEAE Staphylococcal Bacteremia, Grade 4: 0
  TEAE Staphylococcal Bacteremia, Grade 5: 0
  TEAE Thrombocytopenia, Frequency: 0
  TEAE Thrombocytopenia, Grade 2: 0
  TEAE Thrombocytopenia, Grade 3: 0
  TEAE Thrombocytopenia, Grade 4: 0
  TEAE Thrombocytopenia, Grade 5: 0
  TEAE Vomiting, Frequency: 6 (15.4%)
  TEAE Vomiting, Grade 2: 1 (2.6%)
  TEAE Vomiting, Grade 3: 1 (2.6%)
  TEAE Vomiting, Grade 4: 0
  TEAE Vomiting, Grade 5: 0
  subjects requiring treatment with steroids during the study: 59%
200 mg QW (6 of 39)
  proportion of subjects with Grade 3 or higher ALT: 15.8%
200 mg QW, fasted state
  subjects who discontinued study medications: 54%
200 mg QW, n = 39
  Subjects Reporting Diarrhea as an AE: 13 (33.3%)
200 mg QW, active treatment period
  Discontinuation: Death: 3 (7.7%) Subject n (%)
200 mg QW, active treatment period through Week 11
  Discontinuation: Adverse event: 7 (17.9%) Subject n (%)
400 mg per week, given as 200 mg BIW
  subjects reporting SAEs involving the gastrointestinal tract: 63%
Treatment Wk 8
  ALT, subject 4090: 445 U/L
  AST, subject 4090: 195 U/L
  Alk Phos, subject 4090: Normal
  Bilirubin, subject 4090: 44 µmol/L
Treatment Wk 10
  ALT, subject 4090: 792 U/L
  AST, subject 4090: 312 U/L
  Alk Phos, subject 4090: Normal
  Bilirubin, subject 4090: Normal
200 BIW, Posttreatment Wk 1
  ALT, subject 4008: 137 U/L
  AST, subject 4008: Normal
  Bilirubin, subject 4008: 48 µmol/L
200 BIW, Posttreatment Wk 1, Previously elevated
  Alk Phos, subject 4008: 117 U/L
200 QW, Post Treatment Wk 1
  ALT, subject 3001: 375 U/L
  AST, subject 3001: 164 U/L
  Bilirubin, subject 3001: 89 µmol/L
200 QW, Post Treatment Wk 1, elevated
  Alk Phos, subject 3001: 337 U/L
200 QW, Post Treatment Wk 4
  ALT, subject 3044: 227 U/L
  AST, subject 3044: Normal
  Bilirubin, subject 3044: 50 µmol/L
200 QW, Post Treatment Wk 4, Previously elevated
  Alk Phos, subject 3044: 174 U/L
Cohort 1
  Grade of hepatobiliary AE symptomatic gallstones, subject 1016: 3
  Grade of hepatobiliary AE worsening hyperbilirubinemia, subject 1003: 4
  Outcome of hepatobiliary AE symptomatic gallstones, subject 1016: recovered/resolved
  Outcome of hepatobiliary AE worsening hyperbilirubinemia, subject 1003: not recovered/not
  Relationship of hepatobiliary AE symptomatic gallstones, subject 1016: not related
  Relationship of hepatobiliary AE worsening hyperbilirubinemia, subject 1003: not related
  subjects discontinued due to neutropenia: 0 subject(s)
Cohort 1, 40 mg QW
  ALT (Screening) >3 × ULN-5 × ULN, subjects: 0
  ALT (Screening) >5 × ULN-10 × ULN, subjects: 0
  ALT (Screening) >10 × ULN-20 × ULN, subjects: 0
  ALT (Screening) >20 × ULN, subjects: 0
  ALT (any time during therapy) >3 × ULN-5 × ULN, subjects: 2 (8.7%)
  ALT (any time during therapy) >5 × ULN-10 × ULN, subjects: 1 (4.3%)
  ALT (any time during therapy) >10 × ULN-20 × ULN, subjects: 0
  ALT (any time during therapy) >20 × ULN, subjects: 0
  AST (Screening) >3 × ULN-5 × ULN, subjects: 0
  AST (Screening) >5 × ULN-10 × ULN, subjects: 0
  AST (Screening) >10 × ULN-20 × ULN, subjects: 0
  AST (Screening) >20 × ULN, subjects: 0
  AST (any time during therapy) >3 × ULN-5 × ULN, subjects: 1 (4.3%)
  AST (any time during therapy) >5 × ULN-10 × ULN, subjects: 0
  AST (any time during therapy) >10 × ULN-20 × ULN, subjects: 0
  AST (any time during therapy) >20 × ULN, subjects: 0
  Alkaline Phosphatase (Screening) >2.5-5.0 × ULN, subjects: 0
  Alkaline Phosphatase (Screening) >5.0-20.0 × ULN, subjects: 0
  Alkaline Phosphatase (Screening) >20.0 × ULN, subjects: 0
  Alkaline Phosphatase (Screening) >ULN-[…] ULN, subjects: 6 (24.0%)
  Alkaline Phosphatase (any time during therapy) >2.5-5.0 × ULN, subjects: 0
  Alkaline Phosphatase (any time during therapy) >5.0-20.0 × ULN, subjects: 0
  Alkaline Phosphatase (any time during therapy) >20.0 × ULN, subjects: 0
  Alkaline Phosphatase (any time during therapy) >ULN-[…] ULN, subjects: 6 (26.1%)
  GI AE Leading to Study Drug Discontinuation: Abdominal pain, subjects: 0
  GI AE Leading to Study Drug Discontinuation: Diarrhoea, subjects: 0
  GI AE Leading to Study Drug Discontinuation: Dyspepsia, subjects: 0
  GI AE Leading to Study Drug Discontinuation: Nausea, subjects: 0
  GI AE Leading to Study Drug Discontinuation: Vomiting, subjects: 0
  GI AEs Leading to Study Drug Discontinuation: Total subjects discontinued: 0

Source: patent US20140303092A1 (CHIMERIX, INC., priority 2011, published 2014)
